What was measured:
Commelina diffusa [1] = test: Herbicidal activity against Commelina diffusa in Abelmoschus esculentus plots assessed as minor weed growth at 0.66 kg a.i/ha after 2 weeks; format: functional
Corchorus olitorius [2] = test: Phytotoxicity in Corchorus olitorius assessed as shoot length at 0.33 kg a.i/ha treated to soil after 7 weeks (reference value: 23.7 +/- 0.10 mm); format: organism-based; conditions: in vivo, other, 1176 h
[3] = test system: Rottboellia cochinchinensis; test: Herbicidal activity against Rottboellia cochinchinensis in Corchorus olitorius plots assessed as weed cover at 0.33 kg a.i/ha after 7 weeks (reference value: 1.7 +/- 0.56 %); format: functional
Calopogonium mucunoides [4] = test: Herbicidal activity against Calopogonium mucunoides in Corchorus olitorius plots assessed as weed cover at 1.32 kg a.i/ha after 2 weeks (reference value: 81.7 +/- 0.43 %); format: functional
Commelina diffusa [5] = test: Herbicidal activity against Commelina diffusa in Corchorus olitorius plots assessed as weed recovery at 0.66 kg a.i/ha after 2 weeks (reference value: 78.3 +/- 0.74 %); format: functional
Calopogonium mucunoides [6] = test: Herbicidal activity against Calopogonium mucunoides in Corchorus olitorius plots assessed as weed recovery at 1.32 kg a.i/ha after 2 weeks (reference value: 78.3 +/- 0.74 %); format: functional
Calopogonium mucunoides [7] = test: Herbicidal activity against Calopogonium mucunoides in Abelmoschus esculentus plots assessed as weed recovery at 1.32 kg a.i/ha after 2 weeks (reference value: 60.1 +/- 0.46 %); format: functional
Synedrella nodiflora [8] = test: Herbicidal activity against Synedrella nodiflora in Corchorus olitorius plots assessed as weed cover at 0.99 kg a.i/ha after 4 weeks (reference value: 20.1+/- 0.57 %); format: functional
Cyperus rotundus = test: Herbicidal activity against Cyperus rotundus in Corchorus olitorius plots assessed as weed cover at 0.66 kg a.i/ha after 4 weeks (reference value: 20.1+/- 0.57 %); format: functional
Corchorus olitorius [9] = test: Phytotoxicity in Corchorus olitorius assessed as root length at 0.33 kg a.i/ha applied as solution after 7 weeks (reference value: 14.3 +/- 1.06 mm); format: organism-based; conditions: in vivo, other, 1176 h
Synedrella nodiflora [10] = test: Herbicidal activity against Synedrella nodiflora in Abelmoschus esculentus plots assessed as weed recovery at 1.32 kg a.i/ha after 2 weeks (reference value: 60.1 +/- 0.46 %); format: functional
Calopogonium mucunoides [11] = test: Herbicidal activity against Calopogonium mucunoides in Abelmoschus esculentus plots assessed as weed recovery at 0.99 kg a.i/ha after 2 weeks (reference value: 60.1 +/- 0.46 %); format: functional
Synedrella nodiflora [12] = test: Herbicidal activity against Synedrella nodiflora in Corchorus olitorius plots assessed as weed cover at 1.32 kg a.i/ha after 2 weeks (reference value: 81.7 +/- 0.43 %); format: functional
Calopogonium mucunoides [13] = test: Herbicidal activity against Calopogonium mucunoides in Abelmoschus esculentus plots assessed as weed cover at 1.32 kg a.i/ha after 2 weeks (reference value: 63.5 +/- 0.29 %); format: functional
Corchorus olitorius [14] = test: Phytotoxicity in Corchorus olitorius assessed as shoot length at 0.99 kg a.i/ha applied as solution after 7 weeks (reference value: 22.9 +/- 0.8 mm); format: organism-based; conditions: in vivo, other, 1176 h
Synedrella nodiflora [15] = test: Herbicidal activity against Synedrella nodiflora in Corchorus olitorius plots assessed as weed cover at 0.99 kg a.i/ha after 2 weeks (reference value: 81.7 +/- 0.43 %); format: functional
Euphorbia heterophylla [16] = test: Herbicidal activity against Euphorbia heterophylla in Corchorus olitorius plots assessed as weed recovery at 0.66 kg a.i/ha after 2 weeks (reference value: 78.3 +/- 0.74 %); format: functional
Ageratum conyzoides = test: Herbicidal activity against Ageratum conyzoides in Corchorus olitorius plots assessed as weed cover at 0.33 kg a.i/ha after 4 weeks (reference value: 20.1+/- 0.57 %); format: functional
Calopogonium mucunoides [17] = test: Herbicidal activity against Calopogonium mucunoides in Abelmoschus esculentus plots assessed as weed cover at 0.99 kg a.i/ha after 2 weeks (reference value: 63.5 +/- 0.29 %); format: functional
Corchorus olitorius [18] = test: Phytotoxicity in Corchorus olitorius assessed as crop seedling injury at 0.33 kg a.i/ha after 2 weeks relative to untreated control; format: organism-based; conditions: in vivo, 336 h
Euphorbia heterophylla [19] = test: Herbicidal activity against Euphorbia heterophylla in Corchorus olitorius plots assessed as major weed growth at 1.32 kg a.i/ha after 2 weeks; format: functional
Synedrella nodiflora [20] = test: Herbicidal activity against Synedrella nodiflora in Abelmoschus esculentus plots assessed as weed cover at 0.66 kg a.i/ha after 4 weeks (reference value: 22.6 +/- 0.49 %); format: functional
Calopogonium mucunoides [21] = test: Herbicidal activity against Calopogonium mucunoides in Corchorus olitorius plots assessed as weed cover at 0.66 kg a.i/ha after 2 weeks (reference value: 81.7 +/- 0.43 %); format: functional
Euphorbia heterophylla [22] = test: Herbicidal activity against Euphorbia heterophylla in Abelmoschus esculentus plots assessed as weed cover at 0.99 kg a.i/ha after 4 weeks (reference value: 22.6 +/- 0.49 %); format: functional
Abelmoschus esculentus [23] = test: Phytotoxicity in Abelmoschus esculentus assessed as crop seedling injury at 0.99 kg a.i/ha after 2 weeks relative to untreated control; format: organism-based; conditions: in vivo, 336 h
Calopogonium mucunoides [24] = test: Herbicidal activity against Calopogonium mucunoides in Abelmoschus esculentus plots assessed as weed cover at 0.66 kg a.i/ha after 7 weeks (reference value: 14.7 +/- 0.46 %); format: functional
Synedrella nodiflora [25] = test: Herbicidal activity against Synedrella nodiflora in Corchorus olitorius plots assessed as weed cover at 1.32 kg a.i/ha after 4 weeks (reference value: 20.1+/- 0.57 %); format: functional
Euphorbia heterophylla [26] = test: Herbicidal activity against Euphorbia heterophylla in Abelmoschus esculentus plots assessed as major weed growth at 0.99 kg a.i/ha after 2 weeks; format: functional
Euphorbia heterophylla [27] = test: Herbicidal activity against Euphorbia heterophylla in Corchorus olitorius plots assessed as major weed growth at 0.99 kg a.i/ha after 2 weeks; format: functional
Calopogonium mucunoides [28] = test: Herbicidal activity against Calopogonium mucunoides in Corchorus olitorius plots assessed as weed cover at 1.32 kg a.i/ha after 7 weeks (reference value: 1.7 +/- 0.56 %); format: functional
Abelmoschus esculentus [29] = test: Phytotoxicity in Abelmoschus esculentus assessed as seedling emergence at 1.32 kg a.i/ha treated to soil after 7 weeks (reference value: 95 +/- 0.05 %); format: organism-based; conditions: in vivo, other, 1176 h
Calopogonium mucunoides [30] = test: Herbicidal activity against Calopogonium mucunoides in Abelmoschus esculentus plots assessed as weed cover at 0.99 kg a.i/ha after 7 weeks (reference value: 14.7 +/- 0.46 %); format: functional
Corchorus olitorius [31] = test: Phytotoxicity in Corchorus olitorius assessed as shoot length at 0.99 kg a.i/ha treated to soil after 7 weeks (reference value: 23.7 +/- 0.10 mm); format: organism-based; conditions: in vivo, other, 1176 h
Abelmoschus esculentus [32] = test: Phytotoxicity in Abelmoschus esculentus assessed as crop seedling injury at 1.32 kg a.i/ha after 2 weeks relative to untreated control; format: organism-based; conditions: in vivo, 336 h
Euphorbia heterophylla [33] = test: Herbicidal activity against Euphorbia heterophylla in Corchorus olitorius plots assessed as weed recovery at 1.32 kg a.i/ha after 2 weeks (reference value: 78.3 +/- 0.74 %); format: functional
Corchorus olitorius [34] = test: Phytotoxicity in Corchorus olitorius assessed as crop seedling injury at 0.99 kg a.i/ha after 2 weeks relative to untreated control; format: organism-based; conditions: in vivo, 336 h

**Q.** Which Activity (Commelina diffusa [1]) does the source give for `CCC(CC)Nc1c([N+](=O)[O-])cc(C)c(C)c1[N+](=O)[O-]` [PENDIMETHALIN] here?
**A.** Its Activity is 1 /m2.

**Q.** And the Activity (Corchorus olitorius [2])?
**A.** The Activity was 18.8 mm.

**Q.** What about the Activity [3] of the same compound?
**A.** The Activity was 100%.

**Q.** And the Activity (Calopogonium mucunoides [4])?
**A.** Its Activity is 41.7%.

**Q.** What about the Activity (Commelina diffusa [5]) of the same compound?
**A.** Its Activity is 33.3%.

**Q.** What about the Activity (Calopogonium mucunoides [6]) of the same compound?
**A.** Its Activity is 13.3%.

**Q.** What about the Activity (Calopogonium mucunoides [7]) of the same compound?
**A.** The Activity was 33.2%.

**Q.** What about the Activity (Synedrella nodiflora [8]) of the same compound?
**A.** Its Activity is 48.3%.

**Q.** And the Activity (Cyperus rotundus)?
**A.** Its Activity is 63.3%.

**Q.** What about the Activity (Corchorus olitorius [9]) of the same compound?
**A.** The Activity was 3.1 mm.

**Q.** And the Activity (Synedrella nodiflora [10])?
**A.** Its Activity is 33.2%.

**Q.** And the Activity (Calopogonium mucunoides [11])?
**A.** Its Activity is 36.2%.

**Q.** And the Activity (Synedrella nodiflora [12])?
**A.** The Activity was 41.7%.

**Q.** What about the Activity (Calopogonium mucunoides [13]) of the same compound?
**A.** Its Activity is 45%.

**Q.** And the Activity (Corchorus olitorius [14])?
**A.** The Activity was 5.7 mm.

**Q.** And the Activity (Synedrella nodiflora [15])?
**A.** Its Activity is 51.7%.

**Q.** What about the Activity (Euphorbia heterophylla [16]) of the same compound?
**A.** The Activity was 33.3%.

**Q.** What about the Activity (Ageratum conyzoides) of the same compound?
**A.** The Activity was 73.3%.

**Q.** What about the Activity (Calopogonium mucunoides [17]) of the same compound?
**A.** The Activity was 47.9%.

**Q.** And the Activity (Corchorus olitorius [18])?
**A.** Its Activity is 41.7%.

**Q.** And the Activity (Euphorbia heterophylla [19])?
**A.** Its Activity is 31 /m2.

**Q.** What about the Activity (Synedrella nodiflora [20]) of the same compound?
**A.** Its Activity is 47.9%.

**Q.** What about the Activity (Calopogonium mucunoides [21]) of the same compound?
**A.** Its Activity is 51.7%.

**Q.** What about the Activity (Euphorbia heterophylla [22]) of the same compound?
**A.** Its Activity is 39.2%.

**Q.** What about the Activity (Abelmoschus esculentus [23]) of the same compound?
**A.** The Activity was 47.9%.

**Q.** And the Activity (Calopogonium mucunoides [24])?
**A.** Its Activity is 90%.

**Q.** And the Activity (Synedrella nodiflora [25])?
**A.** The Activity was 33.3%.

**Q.** And the Activity (Euphorbia heterophylla [26])?
**A.** Its Activity is 31 /m2.

**Q.** And the Activity (Euphorbia heterophylla [27])?
**A.** Its Activity is 31 /m2.

**Q.** What about the Activity (Calopogonium mucunoides [28]) of the same compound?
**A.** Its Activity is 95%.

**Q.** And the Activity (Abelmoschus esculentus [29])?
**A.** Its Activity is 85%.

**Q.** What about the Activity (Calopogonium mucunoides [30]) of the same compound?
**A.** Its Activity is 83.9%.

**Q.** And the Activity (Corchorus olitorius [31])?
**A.** Its Activity is 22.5 mm.

**Q.** What about the Activity (Abelmoschus esculentus [32]) of the same compound?
**A.** Its Activity is 53.8%.

**Q.** What about the Activity (Euphorbia heterophylla [33]) of the same compound?
**A.** The Activity was 13.3%.

**Q.** What about the Activity (Corchorus olitorius [34]) of the same compound?
**A.** Its Activity is 60%.
